Results published in paper PMC11167047 (Cell Death Discovery, 2024).

Assays:
Test in all cases: kinome screen (33PanQinase)
Assay type in all cases: biochemical
FLT3 = molecular target: T1, FLT3 (Homo sapiens, UniProt P36888)
T1 construct: purchased Reaction Biology Europe GmbH (formerly ProQinase)
T1 sequence (P36888 27-993): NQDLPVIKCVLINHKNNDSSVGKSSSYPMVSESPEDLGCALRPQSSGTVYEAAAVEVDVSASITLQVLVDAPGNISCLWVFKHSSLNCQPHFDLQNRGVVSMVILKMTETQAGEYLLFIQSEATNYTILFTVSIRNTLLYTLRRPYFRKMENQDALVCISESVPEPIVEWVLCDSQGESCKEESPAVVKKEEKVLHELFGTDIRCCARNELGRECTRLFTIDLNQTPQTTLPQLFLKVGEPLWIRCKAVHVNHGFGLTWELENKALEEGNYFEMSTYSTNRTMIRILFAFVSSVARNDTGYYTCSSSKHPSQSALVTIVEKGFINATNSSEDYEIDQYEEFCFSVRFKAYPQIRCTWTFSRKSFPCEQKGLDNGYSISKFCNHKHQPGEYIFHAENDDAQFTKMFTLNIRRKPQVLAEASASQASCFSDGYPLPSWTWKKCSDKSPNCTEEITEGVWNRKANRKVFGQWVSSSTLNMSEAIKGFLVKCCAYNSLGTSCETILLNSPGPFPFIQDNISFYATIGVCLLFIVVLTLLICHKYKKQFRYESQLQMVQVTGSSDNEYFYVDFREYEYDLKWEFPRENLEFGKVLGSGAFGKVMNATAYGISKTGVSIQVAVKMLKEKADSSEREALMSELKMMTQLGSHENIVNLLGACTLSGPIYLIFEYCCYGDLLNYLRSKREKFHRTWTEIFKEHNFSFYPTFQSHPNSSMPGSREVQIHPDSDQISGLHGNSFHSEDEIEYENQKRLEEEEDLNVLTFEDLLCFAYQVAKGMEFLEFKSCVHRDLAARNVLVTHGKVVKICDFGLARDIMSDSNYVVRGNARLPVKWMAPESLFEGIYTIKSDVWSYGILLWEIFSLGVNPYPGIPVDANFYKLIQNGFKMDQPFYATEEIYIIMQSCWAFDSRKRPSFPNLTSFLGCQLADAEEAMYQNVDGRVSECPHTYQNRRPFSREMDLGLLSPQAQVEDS
Experimental: (§1) The Kinome Screening was performed by Reaction Biology Europe GmbH (http://reactionbiology.com; Freiburg i. Br., Germany).

PKCβ2 = molecular target: T2, PKCβ2 (Homo sapiens, UniProt P05771)
T2 construct: purchased Reaction Biology Europe GmbH (formerly ProQinase)
Experimental: as §1

CDK1/CycA2 = molecular target: T3, CDK1/CycA2 (Homo sapiens, UniProt P06493)
T3 construct: purchased Reaction Biology Europe GmbH (formerly ProQinase)
Experimental: as §1

CAMK4 = molecular target: T4, CAMK4 (Homo sapiens, UniProt Q16566)
T4 construct: purchased Reaction Biology Europe GmbH (formerly ProQinase)
T4 sequence (Q16566 1-473): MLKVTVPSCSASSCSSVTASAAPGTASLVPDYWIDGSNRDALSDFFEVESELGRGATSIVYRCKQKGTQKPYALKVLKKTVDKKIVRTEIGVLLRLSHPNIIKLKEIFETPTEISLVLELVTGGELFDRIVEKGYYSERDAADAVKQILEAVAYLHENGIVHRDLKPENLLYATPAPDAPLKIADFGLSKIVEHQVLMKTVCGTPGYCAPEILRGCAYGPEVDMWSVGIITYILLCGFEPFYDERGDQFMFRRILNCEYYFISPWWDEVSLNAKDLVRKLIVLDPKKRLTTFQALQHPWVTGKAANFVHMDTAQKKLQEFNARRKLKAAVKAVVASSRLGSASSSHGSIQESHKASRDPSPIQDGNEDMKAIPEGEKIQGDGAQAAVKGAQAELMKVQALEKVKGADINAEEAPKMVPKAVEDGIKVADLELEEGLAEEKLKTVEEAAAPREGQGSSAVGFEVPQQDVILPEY
Experimental: as §1

EPHB4 = molecular target: T5, EPHB4 (Homo sapiens, UniProt P54760)
T5 construct: purchased Reaction Biology Europe GmbH (formerly ProQinase)
T5 sequence (P54760 16-987): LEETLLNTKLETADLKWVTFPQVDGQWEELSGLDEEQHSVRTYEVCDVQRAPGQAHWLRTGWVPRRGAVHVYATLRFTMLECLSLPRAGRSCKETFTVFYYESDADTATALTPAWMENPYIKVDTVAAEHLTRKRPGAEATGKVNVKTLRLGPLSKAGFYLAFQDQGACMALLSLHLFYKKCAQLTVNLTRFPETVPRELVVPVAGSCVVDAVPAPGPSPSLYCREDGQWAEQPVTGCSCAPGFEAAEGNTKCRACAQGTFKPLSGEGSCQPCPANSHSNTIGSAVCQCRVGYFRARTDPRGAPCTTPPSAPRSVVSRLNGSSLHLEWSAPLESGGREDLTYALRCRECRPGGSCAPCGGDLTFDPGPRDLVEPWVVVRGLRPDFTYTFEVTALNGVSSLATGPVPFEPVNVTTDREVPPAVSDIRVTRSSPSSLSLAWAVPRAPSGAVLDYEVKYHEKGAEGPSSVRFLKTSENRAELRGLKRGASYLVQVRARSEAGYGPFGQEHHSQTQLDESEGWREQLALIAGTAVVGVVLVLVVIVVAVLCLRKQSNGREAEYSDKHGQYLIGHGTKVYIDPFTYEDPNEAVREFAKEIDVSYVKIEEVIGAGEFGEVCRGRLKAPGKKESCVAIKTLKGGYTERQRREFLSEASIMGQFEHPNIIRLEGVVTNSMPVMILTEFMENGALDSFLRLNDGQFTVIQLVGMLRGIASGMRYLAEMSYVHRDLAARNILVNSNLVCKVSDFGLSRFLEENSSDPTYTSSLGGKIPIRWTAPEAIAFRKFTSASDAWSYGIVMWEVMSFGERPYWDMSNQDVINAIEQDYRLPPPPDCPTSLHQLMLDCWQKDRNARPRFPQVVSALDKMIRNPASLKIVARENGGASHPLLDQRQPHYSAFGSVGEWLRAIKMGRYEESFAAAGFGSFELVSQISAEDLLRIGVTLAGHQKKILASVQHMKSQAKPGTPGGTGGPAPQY
Experimental: as §1

LCK = molecular target: T6, LCK (Homo sapiens, UniProt P06239)
T6 construct: purchased Reaction Biology Europe GmbH (formerly ProQinase)
Experimental: as §1

CDK17/p35NCK = molecular target: T7, CDK17/p35NCK (Homo sapiens, UniProt Q00537)
T7 construct: purchased Reaction Biology Europe GmbH (formerly ProQinase)
Experimental: as §1

T7 sequence (Q00537 whole entry): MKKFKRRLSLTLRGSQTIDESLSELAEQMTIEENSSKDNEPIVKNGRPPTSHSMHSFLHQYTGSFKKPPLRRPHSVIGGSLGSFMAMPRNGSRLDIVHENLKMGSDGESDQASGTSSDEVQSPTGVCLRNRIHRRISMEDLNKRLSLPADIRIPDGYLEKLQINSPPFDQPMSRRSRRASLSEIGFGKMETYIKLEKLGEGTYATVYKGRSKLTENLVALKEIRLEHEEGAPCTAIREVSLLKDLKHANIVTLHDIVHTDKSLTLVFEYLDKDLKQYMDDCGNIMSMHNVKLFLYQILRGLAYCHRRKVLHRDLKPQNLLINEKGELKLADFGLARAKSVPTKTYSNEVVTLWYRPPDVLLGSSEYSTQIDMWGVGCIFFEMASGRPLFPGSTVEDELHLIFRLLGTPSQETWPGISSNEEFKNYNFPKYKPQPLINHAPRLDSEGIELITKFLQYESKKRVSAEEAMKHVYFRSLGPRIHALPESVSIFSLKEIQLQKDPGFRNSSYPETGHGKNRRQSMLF
T7 sequence (Q15078 whole entry partner): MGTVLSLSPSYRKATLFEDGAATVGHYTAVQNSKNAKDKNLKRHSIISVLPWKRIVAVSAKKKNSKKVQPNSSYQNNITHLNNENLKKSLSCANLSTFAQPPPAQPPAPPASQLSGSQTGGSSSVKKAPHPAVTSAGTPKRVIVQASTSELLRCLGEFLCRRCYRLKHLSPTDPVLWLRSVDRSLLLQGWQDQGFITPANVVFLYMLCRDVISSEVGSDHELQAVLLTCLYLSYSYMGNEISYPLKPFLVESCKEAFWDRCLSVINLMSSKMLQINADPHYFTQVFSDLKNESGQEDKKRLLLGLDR
T6 sequence (P06239 whole entry): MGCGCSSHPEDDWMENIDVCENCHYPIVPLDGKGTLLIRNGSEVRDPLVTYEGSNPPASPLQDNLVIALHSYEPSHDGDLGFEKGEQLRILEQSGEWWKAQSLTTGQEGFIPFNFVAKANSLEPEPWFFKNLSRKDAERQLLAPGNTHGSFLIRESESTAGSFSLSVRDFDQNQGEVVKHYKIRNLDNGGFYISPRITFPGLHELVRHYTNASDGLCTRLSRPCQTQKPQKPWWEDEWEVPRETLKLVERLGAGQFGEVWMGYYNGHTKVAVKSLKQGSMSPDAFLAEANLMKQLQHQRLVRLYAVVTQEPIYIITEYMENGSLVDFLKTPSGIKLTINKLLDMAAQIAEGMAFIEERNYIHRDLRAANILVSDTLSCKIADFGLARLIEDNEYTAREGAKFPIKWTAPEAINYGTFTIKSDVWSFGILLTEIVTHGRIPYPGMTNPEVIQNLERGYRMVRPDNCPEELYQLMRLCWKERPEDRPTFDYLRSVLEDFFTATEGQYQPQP
T3 sequence (P06493 whole entry): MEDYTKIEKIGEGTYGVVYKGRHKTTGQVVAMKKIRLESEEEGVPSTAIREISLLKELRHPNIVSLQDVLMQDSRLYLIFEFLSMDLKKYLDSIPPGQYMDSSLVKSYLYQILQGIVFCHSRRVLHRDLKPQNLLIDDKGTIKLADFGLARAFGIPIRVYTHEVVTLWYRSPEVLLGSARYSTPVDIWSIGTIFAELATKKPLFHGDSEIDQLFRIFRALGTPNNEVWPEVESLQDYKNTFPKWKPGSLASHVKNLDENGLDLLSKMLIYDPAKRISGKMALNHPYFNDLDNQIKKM
T3 sequence (P20248 whole entry partner): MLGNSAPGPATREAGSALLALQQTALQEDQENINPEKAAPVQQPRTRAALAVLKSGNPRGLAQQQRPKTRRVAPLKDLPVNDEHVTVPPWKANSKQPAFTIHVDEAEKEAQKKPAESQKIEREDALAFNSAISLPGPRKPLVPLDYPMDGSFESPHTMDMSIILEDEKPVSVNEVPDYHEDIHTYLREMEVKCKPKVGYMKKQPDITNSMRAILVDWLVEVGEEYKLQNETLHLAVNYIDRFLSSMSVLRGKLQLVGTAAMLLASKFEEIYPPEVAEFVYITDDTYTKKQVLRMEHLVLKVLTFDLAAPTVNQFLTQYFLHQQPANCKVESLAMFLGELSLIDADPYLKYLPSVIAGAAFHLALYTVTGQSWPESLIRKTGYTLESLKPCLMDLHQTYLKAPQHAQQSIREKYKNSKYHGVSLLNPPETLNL
T2 sequence (P05771 1-673 isoform P05771-2): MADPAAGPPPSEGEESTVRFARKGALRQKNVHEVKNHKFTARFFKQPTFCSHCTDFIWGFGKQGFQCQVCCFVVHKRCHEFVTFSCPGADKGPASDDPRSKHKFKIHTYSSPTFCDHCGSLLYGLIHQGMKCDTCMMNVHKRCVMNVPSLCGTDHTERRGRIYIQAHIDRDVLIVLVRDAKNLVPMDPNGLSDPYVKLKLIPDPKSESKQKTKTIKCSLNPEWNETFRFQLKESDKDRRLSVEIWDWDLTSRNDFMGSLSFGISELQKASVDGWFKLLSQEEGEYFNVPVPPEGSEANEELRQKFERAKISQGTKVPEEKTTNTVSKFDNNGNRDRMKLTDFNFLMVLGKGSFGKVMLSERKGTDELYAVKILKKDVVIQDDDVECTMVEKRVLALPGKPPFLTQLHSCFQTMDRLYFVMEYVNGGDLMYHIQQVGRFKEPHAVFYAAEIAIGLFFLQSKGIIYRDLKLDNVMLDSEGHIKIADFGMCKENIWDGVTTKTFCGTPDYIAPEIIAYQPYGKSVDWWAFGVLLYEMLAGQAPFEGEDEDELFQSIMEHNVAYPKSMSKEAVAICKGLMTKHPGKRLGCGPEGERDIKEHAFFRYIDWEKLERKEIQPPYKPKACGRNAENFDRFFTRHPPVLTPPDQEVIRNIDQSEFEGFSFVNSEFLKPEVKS

| SMILES | residual kinase activity (FLT3; 0.3 µM) | residual kinase activity (PKCβ2; 0.3 µM) | residual kinase activity (CDK1/CycA2; 0.3 µM) | residual kinase activity (CAMK4; 0.3 µM) | residual kinase activity (EPHB4; 0.3 µM) | residual kinase activity (LCK; 0.3 µM) | residual kinase activity (CDK17/p35NCK; 0.3 µM) | also measured |
| --- | --- | --- | --- | --- | --- | --- | --- | --- |
| COc1ccnc2[nH]cc(-c3cc(N)nc(N)c3)c12 [meriolin 16] | 21 % of control | 71 % of control | 5 % of control | 92 % of control | 90 % of control | 91 % of control | 24 % of control | residual kinase activity (FLT3; 0.03 µM): 49 % of control; residual kinase activity (PKCβ2; 0.03 µM): 106 % of control; residual kinase activity (CDK1/CycA2; 0.03 µM): 32 % of control; residual kinase activity (CAMK4; 0.03 µM): 96 % of control; residual kinase activity (EPHB4; 0.03 µM): 97 % of control; residual kinase activity (LCK; 0.03 µM): 87 % of control; residual kinase activity (CDK17/p35NCK; 0.03 µM): 46 % of control |
| c1ccc(CNc2cc(-c3c[nH]c4ncccc34)ccn2)cc1 [meriolin 36] | 9 % of control | 51 % of control | 2 % of control | 92 % of control | 110 % of control | 61 % of control | 20 % of control | residual kinase activity (FLT3; 3 µM): 2 % of control; residual kinase activity (PKCβ2; 3 µM): 11 % of control; residual kinase activity (CDK1/CycA2; 3 µM): 1 % of control; residual kinase activity (CAMK4; 3 µM): 73 % of control; residual kinase activity (EPHB4; 3 µM): 85 % of control; residual kinase activity (LCK; 3 µM): 18 % of control; residual kinase activity (CDK17/p35NCK; 3 µM): 10 % of control |
